{
  "source": "patent US20120074014A1",
  "about": "“PRODUCT TYPICALLY BASED ON SALT OF PEROXYMONOSULFURIC ACID AND SUITABLE FOR MEDICINAL USAGE, AND ASSOCIATED PRODUCT FABRICATION” (LuTran Industries, Inc., priority 2010, published 2012)",
  "key": {"osteoarthritis": {"system": "osteoarthritis", "assay": "Example B: case treatment of osteoarthritis, complete-body immersion", "type": "in vivo, human", "settings": "earlier treatment tried by the patient; patient report", "description": "(§1) Given below are examples of using the medicinal drug of type I/II for treating allergic rhinitis, osteoarthritis, gouty arthritis, bronchitis, hemorrhoids, urticaria, toothache, tinea pedis, acute viral nasopharyngitis, herpes simplex, dandruff, itching, bromhidrosis, and vaginitis. The formulation of the drug of type I/II used in these examples was the preferred formulation, mentioned above, in which the drug was formed with potassium hydrogen peroxymonosulfate as the active oxygen-releasing material, sodium chloride as the inorganic halide, sodium hexametaphosphate as the alkali metal phosphate, sulfamic acid, malic acid as the non-reducing organic acid, and sodium dodecylbenzene sulfonate as the surfactant at approximately the typical mass percentages mentioned above. A formulation approximating this formulation is commercially available in the product Virkon. This formulation of the drug of type I/II is referred to below as the “Medicine”. […]"}, "vaginitis": {"system": "vaginitis", "assay": "Example N: case treatment of vaginitis, vaginal immersion", "type": "in vivo, human", "settings": "earlier treatment tried by the patient; patient report", "description": "as §1"}, "dandruff": {"system": "dandruff", "assay": "Example K: case treatment of dandruff, scalp scrubbing", "type": "in vivo, human", "settings": "earlier treatment tried by the patient; (some of) these decreased the amount of dandruff; patient report", "description": "Given below are examples of using the medicinal drug of type I/II for treating allergic rhinitis, osteoarthritis, gouty arthritis, bronchitis, hemorrhoids, urticaria, toothache, tinea pedis, acute viral nasopharyngitis, herpes simplex, dandruff, itching, bromhidrosis, and vaginitis. […] A formulation approximating this formulation is commercially available in the product Virkon. This formulation of the drug of type I/II is referred to below as the “Medicine”.\nThe Medicine for each person infected with allergic rhinitis, osteoarthritis, gouty arthritis, bronchitis, hemorrhoids, urticaria, toothache, tinea pedis, acute viral nasopharyngitis, herpes simplex, dandruff, itching, bromhidrosis, and vaginitis is provided for topical, intranasal, oral, or/and injection administration 1-12 times per day, preferably 1-8 times per day, more preferably 1-6 times per day, typically 1-4 times per day, in liquid form at a dosage of 0.00001-5%, preferably 0.001-3%, more preferably 0.1-2%, typically 0.5-1%, for a time of contact of 1 minute-12 hours, preferably 1 minute-6 hours, more preferably 1 minute-2 hours, typically 1-30 minutes.\nThe Medicine was provided to […] as a 1% solution for topical administration by scrubbing the Medicine into their scalp and hair for 5 minutes and then washing their scalp and hair. The […] reported that they administered the Medicine to themself in the foregoing manner 4 times a week for 2 weeks."}, "poliovirus": {"system": "poliovirus", "settings": "Sporkenbach, U.S. Pat. No. 4,404,191; cited from earlier work"}, "coxsackie virus": {"system": "coxsackie virus", "settings": "Sporkenbach, U.S. Pat. No. 4,404,191; cited from earlier work"}, "[1]": {"system": "simian vacuolating virus 40", "settings": "Sporkenbach, U.S. Pat. No. 4,404,191; cited from earlier work"}, "adenovirus": {"system": "adenovirus", "settings": "Sporkenbach, U.S. Pat. No. 4,404,191; cited from earlier work"}, "[2]": {"settings": "cited from earlier work"}},
  "note": "Read-outs that look alike come from different tables or passages of the source.",
  "data": [
    {"compound": "N[C@H]1C(O)O[C@H](CO)[C@@H](O)[C@@H]1O", "note": "(some centres unmarked) [glucosamine]", "values": [
      {"measurement": "relief of osteoarthritis by earlier treatments", "setting": "osteoarthritis", "result": "without effective relief"}
    ]},
    {"compound": "C[C@]12CCC(=O)C=C1CC[C@@H]1[C@@H]2[C@@H](O)C[C@@]2(C)[C@H]1CC[C@]2(O)C(=O)CO", "note": "[hydrocortisone]", "values": [
      {"measurement": "success of earlier treatments for vaginitis", "setting": "vaginitis", "result": "without significant success"}
    ]},
    {"compound": "CC(=O)N1CCN(c2ccc(OCC3COC(Cn4ccnc4)(c4ccc(Cl)cc4Cl)O3)cc2)CC1", "note": "(centres unmarked) [ketoconazole]", "values": [
      {"measurement": "dandruff after earlier treatments", "setting": "dandruff", "result": "still visible"}
    ]},
    {"compound": "O=S(=O)([O-])OO.[K+]", "note": "[potassium hydrogen peroxymonosulfate]", "values": [
      {"measurement": "inactivation of poliovirus", "setting": "poliovirus", "result": "inactivated"},
      {"measurement": "inactivation of coxsackie virus", "setting": "coxsackie virus", "result": "inactivated"},
      {"measurement": "inactivation of simian vacuolating virus 40", "setting": "[1]", "result": "inactivated"},
      {"measurement": "inactivation of adenovirus", "setting": "adenovirus", "result": "inactivated"}
    ]},
    {"compound": "S=[Se]=S", "note": "[selenium sulfide]", "values": [
      {"measurement": "dandruff after earlier treatments", "setting": "dandruff", "result": "still visible"}
    ]},
    {"compound": "potassium monopersulfate triple salt", "values": [
      {"measurement": "loss of active oxygen content per month", "setting": "[2]; anhydrous solid, reported in Tufano", "result": "roughly 1%"},
      {"measurement": "loss of active oxygen content per month", "setting": "[2]; solutions (solvent presumably high-purity water), Tufano and Durante", "result": "3-5%"}
    ]},
    {"compound": "zinc pyrithione", "values": [
      {"measurement": "dandruff after earlier treatments", "setting": "dandruff", "result": "still visible"}
    ]}
  ]
}
